Data taken from publication PMC12344671 (Journal of Enzyme Inhibition and Medicinal Chemistry, 2025).

Columns and labels:
[1] = target: mDUSP-H1 (DUSP-H1 from monkeypox virus) (Monkeypox virus, UniProt A0A7H0DN78); assay: biochemical; type: biochemical
normal human cell lines = conditions: cited from earlier work
HEK293 = conditions: cited from earlier work
[2] = system: human dermal fibroblasts (HDF); conditions: cited from earlier work

mDUSP-H1 (DUSP-H1 from monkeypox virus), sequence (A0A7H0DN78 whole entry, looked up): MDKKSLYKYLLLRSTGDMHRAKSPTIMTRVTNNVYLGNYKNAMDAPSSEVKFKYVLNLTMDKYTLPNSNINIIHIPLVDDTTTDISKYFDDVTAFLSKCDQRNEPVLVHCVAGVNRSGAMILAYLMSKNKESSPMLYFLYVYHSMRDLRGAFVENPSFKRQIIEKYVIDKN

| SMILES | mDUSP-H1 reactivity compared to the DMSO control [1] | IC50 [1] [µM] | also measured |
| --- | --- | --- | --- |
| O=c1c(O)c(-c2cc(O)c(O)c(O)c2)oc2cc(O)cc(O)c12 [Myricetin] | significantly reduced reactivity | – | IC50 (normal human cell lines): > 100 µM; IC50 (HEK293): > 100 µM; IC50 [2]: > 100 µM |
| O=c1cc(-c2ccc(O)cc2)oc2c(-c3c(O)cc(O)c4c(=O)cc(-c5ccc(O)cc5)oc34)c(O)cc(O)c12 [Cupressuflavone] | significantly reduced reactivity | 11.1 ± 0.18 | – |
| COc1cc2oc(-c3ccc(O)c(O)c3)cc(=O)c2c(O)c1OC [Cirsiliol] | relatively unchanged | – | – |
| Oc1cc(O)c2c(c1)O[C@@H](c1cc(O)c(O)c(O)c1)[C@H](O)C2 [(−)-Gallocatechin] | significantly reduced reactivity | 9.56 ± 0.32 | IC50 (normal human cell lines): > 100 µM; non-toxic concentration (normal human cell lines): ≤ 100 µM |
| O=c1c(O)c(-c2ccc(O)cc2)oc2c(O)c(O)cc(O)c12 [Herbacetin] | significantly reduced reactivity | 12.71 ± 0.08 | – |
| O=c1cc(-c2ccccc2)oc2cc(O)c(O)c(O)c12 [Baicalein] | significantly reduced reactivity | 11.2 ± 0.14 | – |
| C[C@@H]1O[C@@H](O[C@H]2[C@H](Oc3cc(O)c4c(c3)O[C@H](c3ccc(O)cc3)CC4=O)O[C@H](CO)[C@@H](O)[C@@H]2O)[C@H](O)[C@H](O)[C@H]1O [Naringin] | relatively unchanged | – | inhibitory activity against mDUSP-H1 (in words) [1]: little to no activity |
| C[C@@H]1O[C@@H](Oc2c(-c3ccc(O)c(O)c3)oc3cc(O)cc(O)c3c2=O)[C@H](O)[C@H](O)[C@H]1O [Quercitrin] | relatively unchanged | – | inhibitory activity against mDUSP-H1 (in words) [1]: minimal inhibition |
| COc1ccc(-c2cc(=O)c3c(O)c(OC)c(O[C@@H]4O[C@H](CO[C@@H]5O[C@@H](C)[C@H](O)[C@@H](O)[C@H]5O)[C@@H](O)[C@H](O)[C@H]4O)cc3o2)cc1 [Pectolinarin] | relatively unchanged | – | – |
| COc1ccc(-c2cc(=O)c3c(O)cc(O)cc3o2)cc1O [Diosmetin] | relatively unchanged | – | inhibitory activity against mDUSP-H1 (in words) [1]: no significant inhibitory activity |
| O=C(O[C@@H]1Cc2c(O)cc(O)cc2O[C@@H]1c1cc(O)c(O)c(O)c1)c1cc(O)c(O)c(O)c1 [(−)-Epigallocatechin gallate] | significantly reduced reactivity | 14 ± 0.35 | – |
